Laboratory results as given in US8598114B2, “Antimicrobial compounds” (priority 2007, dated 2013).

Tests used:
Clostridium difficile = assay: MIC, CLSI microbroth dilution (anaerobic bacteria); assay type: cell-based; conditions: Clostridium difficile - antibiotic-susceptible clinical isolate
Experimental: M11-A6 Vol. 24 No. 2 Methods for Antimicrobial Susceptibility Testing of Anaerobic Bacteria; Approved Standard-Sixth Edition.
Supplemented Brucella broth (SBB) was used for the anaerobic strains with an inoculum of approximately 10^6 CFU/mL. SBB is a broth consisting of 1% peptone, 0.5% ‘Lab-lemco’, 1% glucose and 0.5% sodium chloride supplemented with 5 […] vitamin K (both obtained from Sigma Aldrich Ltd.)

Microsporum canis = assay: MIC, CLSI microbroth dilution (filamentous fungi); assay type: cell-based; conditions: Microsporum canis - G.R. Micro collection
Experimental: (§1) M38-A Vol. 22 No. 16 Reference Method for Broth Dilution Antifungal Susceptibility Testing of Filamentous Fungi; Approved Standard.
(§2) Yeast and filamentous fungal MIC were performed in MOPS buffered RPMI 1640 medium (MOPS buffer obtained from Sigma Aldrich Ltd., RPMI 1640 obtained from Invitrogen Ltd, Paisley, Scotland). The yeast inocula were in the range 7.5×10^2-4×10^3 CFU/mL and the filamentous fungi approximately 8×10^3-1×10^5CFU/mL

Bacteroides fragilis = assay: MIC, CLSI microbroth dilution (anaerobic bacteria); assay type: cell-based; set-up: unit not given here; conditions: Bacteroides fragilis - ATCC 25285, SBB (Table 2)
Aspergillus niger = assay: MIC, CLSI microbroth dilution (filamentous fungi); assay type: cell-based; set-up: unit not given beside the values; conditions: Aspergillus niger - G.R. Micro collection
Experimental: as §1, §2

[1] = test system: Trichophyton mentagrophytes; assay: MIC, CLSI microbroth dilution (filamentous fungi); assay type: cell-based; set-up: unit not given beside the values; conditions: Trichophyton mentagrophytes - G.R. Micro collection
Experimental: as §1, §2

[2] = test system: Trichophyton interdigitale; assay: MIC, CLSI microbroth dilution (filamentous fungi); assay type: cell-based; set-up: unit not given beside the values; conditions: Trichophyton interdigitale - G.R. Micro collection
Experimental: as §1, §2

Morganella morganii = assay: MIC, CLSI microbroth dilution (aerobic bacteria); assay type: cell-based; set-up: unit not given beside the values; conditions: Morganella morganii - multi-drug resistant clinical isolate
Text: (§3) Cation-adjusted Mueller-Hinton broth (Oxoid Ltd., Basingstoke, UK and Trek Diagnostic Systems Ltd., East Grinstead, UK) (supplemented with 5% laked horse blood for Streptococcus spp., Corynebacterium jeikeium and Listeria monocytogenes) was used for aerobic bacteria, with an initial inoculum of approximately 10^5 colony-forming units (CFU)/mL.

Streptococcus pyogenes = assay: MIC, CLSI microbroth dilution (aerobic bacteria); assay type: cell-based; set-up: unit not given beside the values
Text: as §3

Listeria monocytogenes = assay: MIC, CLSI microbroth dilution (aerobic bacteria); assay type: cell-based; set-up: unit not given beside the values; conditions: Listeria monocytogenes - antibiotic-susceptible clinical isolate
Text: as §3

Group G Streptococcus = assay: MIC, CLSI microbroth dilution (aerobic bacteria); assay type: cell-based; set-up: unit not given beside the values
Text: as §3

Streptococcus bovis = assay: MIC, CLSI microbroth dilution (aerobic bacteria); assay type: cell-based; set-up: unit not given beside the values
Text: as §3

[3] = test system: Stenotrophomonas maltophilia; assay: MIC, CLSI microbroth dilution (aerobic bacteria); assay type: cell-based; set-up: unit not given beside the values; conditions: Stenotrophomonas maltophilia - antibiotic-susceptible clinical isolate
Text: as §3

Streptococcus mitis = assay: MIC, CLSI microbroth dilution (aerobic bacteria); assay type: cell-based; set-up: unit not given beside the values
Text: as §3

Candida parapsilosis = assay: MIC, CLSI microbroth dilution (yeasts); assay type: cell-based; set-up: unit not given beside the values
Experimental: (§4) M27-A2 Vol. 22 No. 15 Reference Method for Broth Dilution Antifungal Susceptibility Testing of Yeasts; Approved Standard-Second Edition.
as §2

[4] = test system: Candida (Issatchenkia) krusei; assay: MIC, CLSI microbroth dilution (yeasts); assay type: cell-based; set-up: unit not given beside the values
Experimental: as §4, §2

Candida albicans = assay: MIC, CLSI microbroth dilution (yeasts); assay type: cell-based; set-up: unit not given beside the values
Experimental: as §4, §2

Cryptococcus neoformans = assay: MIC, CLSI microbroth dilution (yeasts); assay type: cell-based; set-up: unit not given beside the values; conditions: Cryptococcus neoformans - G.R. Micro collection
Experimental: as §4, §2

Candida tropicalis = assay: MIC, CLSI microbroth dilution (yeasts); assay type: cell-based; set-up: unit not given beside the values; conditions: Candida tropicalis ATCC750 - reference strain
Experimental: as §4, §2

Haemophilus influenzae = assay: MIC, CLSI microbroth dilution (Haemophilus test medium)
Eggerthella lenta = assay: MIC, CLSI microbroth dilution (anaerobic bacteria); assay type: cell-based; set-up: unit not given here; conditions: Eggerthella lenta - ATCC 43055, SBB (Table 2)

SMILES: N=C(N)NCCCC(N)C(=O)NC(Cc1ccc(-c2ccc3ccccc3c2)cc1)C(=O)NC(CCCNC(=N)N)C(=O)NCCc1ccccc1 (centres unmarked) [Compound 1]
- MIC (Clostridium difficile): 32
- MIC (Microsporum canis): 8
- MIC (Bacteroides fragilis): 64
- MIC (Aspergillus niger): 4
- MIC [1]: 16
- MIC [2]: 8
- MIC (Morganella morganii): ≧128
- MIC (Streptococcus pyogenes; Streptococcus pyogenes - Macrolide (M-type) resistance clinical isolate): 32
- MIC (Streptococcus pyogenes; Streptococcus pyogenes - Macrolide (MLS) resistant clinical isolate): 32
- MIC (Listeria monocytogenes): 32
- MIC (Group G Streptococcus; Group G Streptococcus - antibiotic-susceptible clinical isolate): 32
- MIC (Group G Streptococcus; Group G Streptococcus - macrolide-resistant clinical isolate): 32
- MIC (Streptococcus bovis; Streptococcus bovis - antibiotic-susceptible clinical isolate): 64
- MIC (Streptococcus bovis; Streptococcus bovis - macrolide-resistant clinical isolate): 8
- MIC [3]: 64
- MIC (Streptococcus mitis; Streptococcus mitis - antibiotic-susceptible clinical isolate): 64
- MIC (Streptococcus mitis; Streptococcus mitis - macrolide-resistant clinical isolate): ≧128
- MIC (Candida parapsilosis; Candida parapsilosis ATCC 22019, RPMI 1640 (Table 2)): 4
- MIC (Candida parapsilosis; Candida parapsilosis ATCC90018 - reference strain): 4
- MIC ([4]; Candida (Issatchenkia) krusei ATCC6258 - reference strain): 4
- MIC ([4]; F05 Candida (Issatchenkia) krusei ATCC 6258 reference strain, repeat results (Table 2), RPMI 1640): 8
- MIC (Candida albicans; Candida albicans ATCC24433 - reference strain): 2
- MIC (Candida albicans; Candida albicans ATCC90028 - reference strain): 2
- MIC (Cryptococcus neoformans): 4
- MIC (Candida tropicalis): 2
- MIC (Haemophilus influenzae; Haemophilus influenzae - β-lactamase negative clinical isolate): ≧128
- MIC (Haemophilus influenzae; Haemophilus influenzae - β-lactamase positive clinical isolate): ≧128
- MIC (Haemophilus influenzae; Haemophilus influenzae β-lactamase negative ampicillin-resistant): ≧128
- MIC (Eggerthella lenta): 16
